In this experiment the test system is human wild-type p21 promoter. Description: p21 promoter-inducing activity (luciferase) in MFLL-9 cells. The experiment is classed as cell-based. As for the experimental part:
The HDAC inhibition activity in vivo was measured using p21 promoter-inducing activity as an index, as shown below. The MFLL-9 cells employed for the experiments stably maintained fusion genes of human wild-type p21 promoter and luciferase (Dr. B. Vogelstaein). Using phenol red-free DMEM medium comprising 10% FBS, cultivation was carried out in a steam-saturated incubator at 37° C. with 5% carbon dioxide. The MFLL-9 cells were plated at a density of 85,000 cells/well on a 96-well microtiter plate, each in 99 μl of the above-mentioned medium. These were then cultivated for six hours. One μl of test compound solution was added to each well, which was then cultured for another 18 hours.
The intensity of luminescence caused by the product of the enzyme reaction for intracellular luciferase expression was measured using Luc Lite (Packard BioScience Company). A group in which test compounds were not added was used as a negative control group. The values measured for this group were used as a standard. The activities for each concentration of added test compound were expressed relative to the above-mentioned standard value, 1.

On to “cyclo(-L-Am7(S2Py)-D-Tyr(Me)-L-Ile-D-Pro-) [SCOP 401]”, for which the EC50 (commonly the midpoint of the concentration-response curve) runs as follows: (Table 3, hybrid with DTT (/DTT)) 815 nM; (Table 3, hybrid, without DTT) 1360 nM.
